Results reported in US20140186872A1, “BISACODYL AND ITS ANALOGUES AS DRUGS FOR USE IN THE TREATMENT OF CANCER” (CENTRE NATIONAL DE LA RECHERCHE SCIENTIFIQUE- CNRS, priority 2011, published 2014).
Like-named read-outs stand apart in the source and are kept apart here.

Columns and labels:
[1] = system: proliferating TG1 glioblastoma stem cells; assay: ATP-Glo (Cell Titer Glo) cell viability, dose/response, proliferating TG1 cells; assay type: cell-based, human; conditions: for effect on survival of proliferating TG1 cells: own culture medium
Method: The TG1 proliferating cells correspond to cells for which medium is renewed regularly, twice weekly.
The proliferating cells were put back in 1 mL of fresh NS34 medium, dissociated mechanically by pipetting up and down 100 times with a P1000 micropipette preset to 400 μl and counted with Trypan Blue, after dilution in fresh NS34 medium, to obtain a final suspension of 6×10^5 cells/mL.
(§1) 50 μl of solution containing cells was deposited per well in a 96-well plate (Greiner #655090).
(§2) The test compounds, in solution of 100% of DMSO were diluted in culture medium: in the absence of DMSO (medium 0% DMSO) or in the presence of 2% of DMSO (medium 2% DMSO) at concentrations of 200 μM, 100 μM, 80 μM, 60 μM, 40 μM, 20 μM, 10 μM and 2 μM. For all these dilutions the final concentration in DMSO was 2% (see Table 1 below; volumes shown make it possible to construct dose/response curves, in triplicate, for 1 compound on a 96-well plate—FIG. 1)
50 μL of solution of compound was added at the concentrations specified above to 50 μL of cells in the plate (FIG. 1) (Final concentration of compounds in contact with the cells: 100 μM, 50 μM, 40 μM, 30 μM, 20 μM, 10 μM, 5 μM, 1 μM (in 1% of final DMSO). Final concentration of positive control: 50 μM in 1% of final DMSO. Final concentration of negative control: 1% final DMSO). […]
(§3) The test of cell viability was carried out using the Cell Titer Glo kit (Promega #G7571). After thawing of the Cell Titer Glo reagent (1 Buffer vial+1 Substrate vial per plate) protected from the light, the contents of the Buffer vial were transferred to the Substrate vial. 100 μl of Cell Titer Glo reagent was deposited on the cells treated with the compounds.
(§4) The results, which were given for each well in strokes per second (sps), were converted to percentage cell survival relative to the control 1% of DMSO, which was fixed at 100%.
(§5) The EC50 was determined as the concentration that gives 50% of the response.
(§6) Glioblastoma (WHO grade IV glioma) stem cells (TG1, TG16 and OB1) were derived from tumor samples of 3 patients at Sainte Anne Hospital (Paris, France), as previously described (48) and expanded as neurosphere cultures. In continuously proliferating cultures, neurospheres were mechanically dissociated into a single-cell suspension twice a week with 90% renewal of their culture medium. Quiescent glioblastoma stem cells were obtained by non-renewal of the culture medium for 9-16 days following cell seeding. The non-proliferating state was assessed by decreased ability of the cells to incorporate EdU (5-ethynyl-2′-deoxyuridine) using the Click-iT™ EdU Flow Cytometry Assay Kit (Invitrogen, France) according to the manufacturer's instructions. […]
(§7) Confirmed hit compounds from the primary and secondary screens were purchased from Prestwick Chemical and dissolved in DMSO to obtain 10 mM concentrated stock solutions. Hit compound validation was obtained through dose-response curves on the viability of TG1 glioblastoma stem cells under the same experimental conditions (cell density, treatment duration) as described for the primary and secondary screens. Each compound was tested in triplicate in at least three independent experiments on proliferating and quiescent glioblastoma stem TG1 cells.
(§8) The EC50 value was determined for each compound by fitting the data points according to the following equation: […]
(§9) where y represents the expected response (expressed as a percentage of cell viability), x is the chemical compound concentration, Smax and Smin are the maximum and minimum viability responses recorded, respectively, and n is the Hill coefficient. Curve fitting was performed using the Microsoft Excel Solver component.

[2] = system: quiescent TG1 glioblastoma stem cells; assay: ATP-Glo (Cell Titer Glo) cell viability, dose/response, quiescent TG1 cells; assay type: cell-based, human; conditions: for EC50: Homo sapiens, quiescent TG1 cells, ATP-Glo, read-out: concentration leading to 50% of effect (EC50); for EC50 / effect on survival of quiescent TG1 cells (words) / cytotoxicity to quiescent TG1 cells: 24 h; for effect on survival of quiescent TG1 cells (words): own conditioned medium; for cytotoxicity to quiescent TG1 cells: 10 μM
Method: The TG1 cells were put into quiescence by keeping the cells in culture without changing the medium from 9 to 16 days. The state of quiescence was verified by non-incorporation of nucleotides into the DNA of the cells (see example 9).
The quiescent cells were put back in 1 mL of conditioned medium, dissociated mechanically by pipetting up and down 100 times with a P1000 micropipette preset to 400 μl and counted with Trypan Blue, after dilution in conditioned medium, to obtain a final suspension of 8.10^5 cells/mL.
as §1, §2
50 μL of solution of compound was added at the concentrations specified above to 50 μL of cells in the plate (FIG. 1) (Final concentration of compounds in contact with the cells: 100 μM, 50 μM, 40 μM, 30 μM, 20 μM, 10 μM, 5 μM, 1 μM (in 1% of final DMSO). Final concentration of positive control: 50 μM in 1% of final DMSO. Final concentration of negative control: 1% final DMSO).
The cells were incubated for 23 to 24 hours at 37° C. in an incubator in the presence of 5% CO2 (under humid atmosphere at 95% provided by a reservoir filled with distilled water).
as §3, §4, §5, §6, §7, §8, §9

[3] = system: human fetal neural stem cells (f-NSC cells); assay: ATP-Glo cell viability on fetal neural stem cells; assay type: cell-based
[4] = system: human primary astrocytes (HA cells); assay: ATP-Glo cell viability on human astrocytes; assay type: cell-based
Text: Primary human astrocytes (HA cells) were expanded in AM Medium (both from ScienCell Research Laboratories, Carlsbad Calif.) according to the manufacturer's instructions.

[5] = Stability of the test compounds in the culture medium (HPLC); assay type: physicochemical; conditions: for half-life at 10 μM: 1% DMSO, 37° C., HPLC
Method: A mass m was weighed with an analytical balance and a volume V of DMSO was added.
The solution of the compound at 10 mM was diluted to 1/10, still in DMSO.
The latter solution was diluted to 1/100 in medium in order to obtain a final concentration of 10 μM and 1% of DMSO.
After homogenizing (2 min), 150 μl was taken and was mixed with 150 μl of acetonitrile to precipitate the proteins present in the medium, which corresponds to a dilution to ½.
The mixture was vortexed for 1 min and then centrifuged for 10 min at 15000 g.
The supernatant was again diluted to ½ with 1 volume of milliQ water and then injected in HPLC.
The same treatment was carried out at times 2 h, 4 h, 6 h and 24 h.
The solutions were analysed in HPLC using a Gilson chain equipped with a diode array detector and of an automatic injector with an injection loop of 20 μl.
10 μM solutions of Bisacodyl and DDPM were prepared in proliferating or quiescent glioblastoma stem cell culture medium in the presence of 1% DMSO. Following protein precipitation (with acetonitrile), samples were analyzed by HPLC after 0, 2, 4, 6 and 24 h of incubation at 37° C.

[6] = system: U-87 MG glioblastoma cell line; assay: ATP-Glo cell viability on U-87 MG cells; conditions: for cytotoxic effect on U-87 MG cells: 24 h
Method: (§10) The cells were passed 2 or 3 days before the experiment. On that very day, the cells are detached with trypsin according to the above protocol, then centrifuged for 10 minutes at 800 rpm.
(§11) The supernatant was removed and the cells were resuspended in culture medium, then counted and finally diluted to give a final suspension of 10^6 cells/mL.
(§12) 7 mL of cellular suspension at 10^6 cells/mL was prepared for each test compound.
The glioblastoma U-87 MG cell line was purchased from ATCC and expanded in Eagle's Minimum Essential Medium (EMEM) (ATCC) supplemented with 10% fetal bovine serum (FBS) (Invitrogen, France) and 1% penicillin/streptomycin (Invitrogen, France).
The pH of the medium solution was then adjusted to values varying between 7.4 and 6.0 with 1M HCl or a sodium acetate buffer (0.1 M pH=4). The culture media were placed in a CO2 cell culture incubator settled to 5% CO2 and 37° C. for 1 hour. The pH was measured again and re-adjusted to the expected values if necessary and culture media were filter-sterilized (0.22 μm filter) prior to their use. The toxicity of DDPM (10 or 100 μM) on proliferating and quiescent TG1 cells was then assessed under the same conditions as those described in the previous section. pH dependency of lead compounds was also assessed for the glioblastoma U-87 MG cell line and on normal fetal neural stem cells and primary human astrocytes in their respective culture media (adjusted to pH 7.4 or 6.2) with HCl (1M) or a sodium acetate buffer (0.1 M pH=4).

HEK293 cells = assay: ATP-Glo cell viability on HEK 293 cells
Method: as §10, §11, §12
Human Embryonic Kidney 293 cells (HEK 293 cells) were expanded in Minimum Essential Medium (MEM) with 2 mM L-Glutamine, 100 UI/ml-100 μg/ml Penicillin/Streptomycin and 10% FBS.

[7] = system: caspase 3/7 activity in proliferating and quiescent TG1 cells; assay: Apo-ONE Homogeneous Caspase-3/7 Assay in TG1 cells; assay type: cell-based, human
Method: Proliferating (30 000 cells/well) and quiescent (40 000 cells/well) TG1 cells were suspended in freshly prepared culture medium (pH=7.3) or acidified freshly prepared culture medium (pH=6.4) and treated with increasing concentrations of the lead compounds for 24 hours. Following treatment, apoptosis was measured with the Apo-ONE Homogeneous Caspase-3/7 Assay from Promega according to the manufacturer's instructions. Staurosporine (Sigma, Aldrich) and culture medium were used as positive and negative controls, respectively.

[8] = system: quiescent TG1 glioblastoma stem cells; assay: ATP-Glo (Cell Titer Glo) cell viability, dose/response, quiescent TG1 cells; assay type: cell-based, human; conditions: treated 24 h in freshly prepared non-conditioned medium, versus own medium
[9] = 100 μM, acidification with sodium acetate buffer, versus HCl

## CC(=O)Oc1ccc(C(c2ccc(OC(C)=O)cc2)c2ccccn2)cc1 [Compound 1, Bisacodyl]
[1]; 24 h
  effect on survival of proliferating TG1 cells: not on TG1 cells proliferating continuously
[2]
  EC50: 1000 nM
[2]; listed as Bisacodyl
  effect on survival of quiescent TG1 cells (words): only active on TG1 cells in quiescence
[2]; listed as bisacodyl
  effect on survival of quiescent TG1 cells (words): more selective effects
[3]
  effect on survival / toxicity, f-NSC cells: does not display any toxicity
[3]; concentrations of compound up to 100 μM
  cell survival of f-NSC cells: over 90%
[4]
  toxicity for HA cells: does not display any toxicity
[4]; Homo sapiens, Astrocyte, not due to cell death, read-out: maximum effect on HA cells: reduction of ATP levels
  Emax: 30%
[4]; concentrations above 10 μM
  survival of human astrocytes (HA): 60%
[5]; read-out: half-life in the medium of the proliferating cells (converted)
  half-life at 10 μM: 2 h
[5]; quiescent glioblastoma stem cell culture medium (no cells), read-out: half-life in the medium of the quiescent cells (converted)
  half-life at 10 μM: 4 h
[6]; concentrations between 10 and 100 μM
  survival of U-87 MG cells: 90%
HEK293 cells
  toxicity for HEK293 cells: does not display any toxicity
HEK293 cells; 10 μM
  survival of HEK293 cells: 100%
HEK293 cells; 100 μM
  survival of HEK293 cells: 80%

## Oc1ccc(C(c2ccc(O)cc2)c2ccccn2)cc1 [Compound 2, 4,4′-(Pyridin-2-ylmethylene)diphenol]
[1]; 10 μM, 24 h, acidic medium (HCl)
  survival of proliferating TG1 cells: also decreased
[1]; [9]
  effect on proliferating TG1 cells: more pronounced
[1]; NS34 medium pH 7.35 or 6.2, 24 or 72 h, Example 13
  survival of TG1 glioblastoma cancer stem cells (ATP level): decreases the survival
[1]; 24 h
  effect on survival of proliferating TG1 cells: a little more marked
[1]; 24 h, listed as DDPM
  effect on survival of proliferating TG1 cells: minor effect
[1]; treated 24 h in conditioned quiescent cell medium, versus own medium
  cytotoxic activity on proliferating TG1 cells after media exchange: more pronounced cytotoxic activity
[2]; pH values above 7
  cytotoxicity to quiescent TG1 cells: little or no effect
[2]; slightly acidic conditions (HCl)
  cytotoxicity to quiescent TG1 cells: cytotoxic
[2]; [9]
  effect on quiescent TG1 cells: more pronounced
[2]
  EC50: ~1000 nM
  effect on survival of quiescent TG1 cells (words): effect comparable to bisacodyl
[2]; listed as DDPM
  effect on survival of quiescent TG1 cells (words): high cytotoxicity
[4]; pH 7.4 versus 6.2, related to cell death
  effect on ATP levels of human astrocytes: pH dependent reduction of ATP levels
[5]; proliferating and quiescent culture medium, up to 24 h
  change in concentration in the culture media (stability): No change
[7]; pH 6.4, 24 h, proliferating and quiescent TG1 cells
  caspase 3/7 activity: stimulates caspase 3/7 activity in a dose-dependent manner
[7]; physiological pH (pH 7.3), 24 h
  pro-apoptotic effect (caspase 3/7 activity): not observed
[8]
  effect on quiescent TG1 cells after media exchange: significantly reduced
[6]; acidic pH adjusted with sodium acetate buffer, versus HCl
  percentage of U-87 cell death: even higher
[6]; pH 6.2 set with 1M HCl, versus physiological pH
  cytotoxic effect on U-87 MG cells: significantly higher
[6]; physiological pH
  cytotoxic effect on U-87 MG cells: no cytotoxic effect
